Values belong to the compound of their own block, whether it stands above or below them. Numbered stars: 1 amine (or outer) side, 2 acyl side, 3 side chain; on linkers, the order of the positions; unused ones are H or OH. Bridge positions count the residues as written; N and C are the ends. Square brackets hold non-standard residues; d marks the D form. Peptide text beside a SMILES is read from it. I, II: the chains in the order shown. Hexamethylenediamine = C(CCCN[*:2])CCN[*:1]; Dip = N[C@H](C(=O)O)C(c1ccccc1)c1ccccc1; Chg = N[C@H](C(=O)O)C1CCCCC1; NMeA = CN[C@@H](C)C(=O)O
What was measured:
cells = assay: Cell death assay (Annexin V / PI); assay type: cell-based
Procedure: Cell death assay. Cells (2×10^5 cells/well) were seeded in a 6-well plate and treated with the indicated drugs for 6 hours. Cells were dissociated using Accutase (Thermo Fisher; Cat. #00-4555-56) in order to avoid accidental exposure of phosphatidylserine on the outer plasma membrane. Cell death was evaluated with Dead Cell Apoptosis Kit with Annexin V Alexa Fluor™ 488 & Propidium Iodide (Thermo Fisher; Cat. #V13241) according to manufacturer's protocol. Data was acquired by BD LSRII flow cytometer system using BD FACSDiva software. Data was analyzed by FlowJo (BD).

HR2 domain of MFN2 = molecular target: T1, HR2 domain of MFN2 (Homo sapiens, UniProt O95140); assay: Microscale thermophoresis (MST) binding
T1 construct: Human MFN2 residues 678-757 corresponding to the HR2 domain; made in house; host or cells: E. coli BL21(DE3) CodonPlus (DE3)-RIPL
T1 sequence (O95140 678-757): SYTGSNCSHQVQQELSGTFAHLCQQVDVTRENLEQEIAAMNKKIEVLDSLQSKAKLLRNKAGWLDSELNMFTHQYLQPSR
Procedure: Freshly purified His-tagged MFN2-HR2 domain was used for Microscale Thermophoresis (MST) binding studies. For protein labelling, a fresh stock of 5 M His-tag-RED-tris-NTA 2nd generation dye (Nanotemper) in 25 mM Hepes pH 7.5, 100 mM NaCl, 0.005% Tween-20 (assay buffer) was used to label 500 nM of MFN2-HR2 in the same buffer. The labeling reaction was incubated for 30 min at RT and centrifuged at 15.000×g at 4° C. for 10 min. Labelled protein from the supernatant was kept on ice and used immediately. Compounds were serially diluted in 100% DMSO. Immediately before mixing with labeled protein, the dilution series was transferred in assay buffer to reach 2% DMSO. 10 μl of each compound in the final series was mixed with 10 µl of labeled protein and samples were incubated for 5 min at 30° C. before MST measurement using a MonolithNT.115 instrument (Nanotemper). Peptides were diluted in assay buffer plus 2% DMSO and treated as above. […] Kd values were obtained from non-linear regression fits of normalized data to a three or four parameter logistic curve, using GraphPad Prism 9.

caspase-3/7 in MEFs = assay: Caspase-3/7 activation assay; assay type: cell-based, mouse; settings: 6 hr
Procedure: Caspase-3/7 activation assay. Cells (5×10^3 cells/well) were seeded in a 96-well white plate and treated with MASM7, MFI8. Caspase 3/7 activation was measured after 6 hr by addition of the Caspase-Glo 3/7 reagent according to the manufacturer's protocol (Promega). Luminescence was detected by a F200 PRO microplate reader (TECAN). Caspase assays were performed in at least triplicate and the data normalized to vehicle-treated control wells. Dilutions of MASM7 or MFI8 were performed using a TECAN D300e Digital Dispenser from 10 mM stocks.

MEFs = assay: Mitochondrial aspect ratio (Mito AR), live cell imaging; settings: for mitochondrial aspect ratio / mitochondrial fragmentation: WT cells
Procedure: Live cell imaging. MEFs were seeded on chamber slides (MatTek Corporation: 35 mm dishes, No. 1.5, 14 mm glass diameter) at ~70% confluence. […] Images were taken with Leica SP5 inverted confocal microscope. Data were analyzed with Image J software. >200 mitochondria were measured per condition in mitochondrial aspect ratio.
Measurement of mitochondrial aspect ratio (Mito AR). Images that depict stained mitochondria with mitotracker green were analyzed using FIJI We measured for each mitochondrion its length and width. Then, we divided the length by the width for each mitochondrion to get its mitochondrial aspect ratio. >200 mitochondria were measured per treatment.
MEFs were seeded on chamber slides (MatTek Corporation: 35 mm dishes, No. 1.5, 14 mm glass diameter) at ~70% confluence. Cells were treated with compounds. Then, cells were stained with MitoTracker Green (200 nM, Invitrogen) for 20 min at 37° C. After treatments, media was replaced with FluoroBrite™ DMEM (Invitrogen) supplemented with 10% FBS, 100 U ml^−1 penicillin/streptomycin, 2 mM L-glutamine and compound prior image acquisition. Images were taken with Leica SP5 inverted confocal microscope. Data were analyzed with Image J software. >200 mitochondria were measured per condition in mitochondrial aspect ratio. Measurement of mitochondrial aspect ratio (Mito AR). Images that depict stained mitochondria with mitotracker green were analyzed using FIJI software. Each mitochondrion was measured for its length and width. Then, the length was divided by the width for each mitochondrion to get its mitochondrial aspect ratio. >200 mitochondria were measured per treatment.

MFNs = settings: reported small molecule; cited from earlier work
[1] = mouse liver microsome assay; assay type: in vitro ADME; settings: FIG. 2

SMILES: Cc1oncc1C(=O)Nc1ccc(C(F)(F)F)cc1 [Leflunomide]
- MFNs protein levels (MFNs): alters MFNs protein levels through loss of pyrimidine synthesis

SMILES: CN[C@@H](C)C(=O)N[C@H](C(=O)N1CCC[C@H]1C(=O)N[C@H](C(=O)NCCCCCCNC(=O)[C@@H](NC(=O)[C@@H]1CCCN1C(=O)[C@@H](NC(=O)[C@H](C)NC)C1CCCCC1)C(c1ccccc1)c1ccccc1)C(c1ccccc1)c1ccccc1)C1CCCCC1 [BV6, reference compound] (I: H-[NMeA][Chg]P[Dip] / II: H-[NMeA][Chg]P[Dip]; linker I:C-II:C via Hexamethylenediamine)
- cell death on BV6 treatment (cells; deletion of MFNs): sensitized cells to BV6 treatment

More lines, main results first:

- binding to the HR2 domain of MFN2 (HR2 domain of MFN2): did not demonstrate measurable binding
- caspase-3/7 activity (caspase-3/7 in MEFs): did not increase caspase-3/7 activity
SMILES: Cc1cccc(NC(C)c2ccccc2O)c1C (stereo not shown) [MFI22]
- sensitization to BV6-induced cell death (cells; combined with BV6): did not sensitize cells to BV6 treatment
- mitochondrial aspect ratio / mitochondrial fragmentation (MEFs): significantly reduced the capacity of the compound to promote mitochondrial fragmentation

- binding to the HR2 domain of MFN2 (HR2 domain of MFN2): did not demonstrate measurable binding
SMILES: Cc1cccc(NC(C)c2cccc(Cl)c2)c1C (stereo not shown) [MFI26]
- mitochondrial aspect ratio / mitochondrial fragmentation (MEFs): detrimental for the activity

- IC50 (MEFs; Mus musculus, 6 h, read-out: IC50 (decrease of Mito AR)): 1790 nM
- half life (t½) [1]: increased half life
SMILES: Cc1cccc(NC(=O)c2cc(Cl)cc(-c3ccccn3)c2O)c1C [MFI43]

— US20260274810A1, “NOVEL MITOFUSIN INHIBITORS” (ALBERT EINSTEIN COLLEGE OF MEDICINE, priority 2023, published 2026)
